Measured values taken from ChEMBL document CHEMBL1144055, “Mathemycin B, a new antifungal macrolactone from actinomycete species HIL Y-8620959” (1999).

Assays:
Type in all cases: functional
Fusarium culmorum = assay: Antimicrobial activity against Fusarium culmorum assessed as drug concentration required to form 10 mm zone of inhibition by agar diffusion method
Alternaria mali = assay: Antimicrobial activity against Alternaria mali P37 assessed as drug concentration required to form 10 mm zone of inhibition by agar diffusion method
Botrytis cinerea [1] = assay: Antimicrobial activity against Botrytis cinerea A06 assessed as drug concentration required to form 10 mm zone of inhibition by agar diffusion method
Botrytis cinerea [2] = assay: Antimicrobial activity against Botrytis cinerea DO1 assessed as drug concentration required to form 10 mm zone of inhibition by agar diffusion method
[3] = Antimicrobial activity against Pellicularia sasakii JO3 assessed as drug concentration required to form 10 mm zone of inhibition by agar diffusion method
Parastagonospora nodorum = assay: Antimicrobial activity against Leptosphaeria nodorum JO2 assessed as drug concentration required to form 10 mm zone of inhibition by agar diffusion method
Oculimacula yallundae = assay: Antimicrobial activity against Pseudocercosporella herpotrichoides 008 assessed as drug concentration required to form 10 mm zone of inhibition by agar diffusion method
Phytophthora infestans = assay: Antimicrobial activity against Phytophthora infestans JO8 assessed as drug concentration required to form 10 mm zone of inhibition by agar diffusion method

Row | Compound | MAC (Fusarium culmorum) [mg/L] | MAC (Alternaria mali) [mg/L] | MAC (Botrytis cinerea [1]) [mg/L] | MAC (Botrytis cinerea [2]) [mg/L] | MAC [3] [mg/L] | MAC (Parastagonospora nodorum) [mg/L] | MAC (Oculimacula yallundae) [mg/L] | MAC (Phytophthora infestans) [mg/L]
1 | C/C1=C\C(C)C(O)/C(C)=C/C(O[C@H]2O[C@H](CO)[C@@H](O)[C@H](O[C@@H]3O[C@H](CO)[C@@H](O)[C@H](O)[C@@H]3O)[C@@H]2O)C(O)C(C)C(O)CC(O)CC(O)C(C)C(O)CC(O)CC(O)C(C)C(O)CC(O)CC(O[C@@H]2O[C@H](C)[C@@H](O)[C@H](N)[C@H]2O)C(C)C(C(C)CC(C)CCCCCCN)OC(=O)CCC(C)C(O)CC/C=C/C(C)C1O (some centres undefined) [MATHEMYCIN B] | 62.5 | 62.5 | 62.5 | 62.5 | 62.5 | 125 | 250 | 
2 | MANCOZEB |  |  |  |  |  |  |  | 62.5
3 | maneb |  |  |  |  |  |  | 125 | 
